Data on 13 compounds can be found in PubChem BioAssay (NCI).

Test systems include SN12C renal; NCI/ADR-RES ovarian; SF-539 CNS; HCT-116 colon; UACC-257 melanoma; T-47D breast; KM12 colon; IGROV1 ovarian; HT29 colon; OVCAR-8 ovarian.
Common to all, as to experiment: inhibition of tumour cell growth, NCI panel, 48 h

Structures are written as SMILES. Several values for one entry are separate records, joined by “and”; a condition that tells them apart may be missing. Equal values may be shown once.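 Cultured in 96-well plates, cells were exposed to test compound for 48 hours across five concentrations. The concentration for 50% growth inhibition is given as GI50. TGI marks complete inhibition of growth.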 Some results are limits rather than exact numbers.

Turning to `CCOC(=O)C(C#N)C1=CC(=O)C(=O)c2ccc(O)cc21` (configuration not stated), the TGI with SN12C renal, in the test with NCI/ADR-RES ovarian, with SF-539 CNS, with HCT-116 colon, in the test with UACC-257 melanoma and in the test with T-47D breast was > 100 µM throughout. Further, the TGI in the test with KM12 colon, with IGROV1 ovarian, in the test with HT29 colon and with OVCAR-8 ovarian was > 100 µM throughout.

Take `CSc1nc2c(c(=O)n1C)CN(C1CCCCC1)C(=O)C(c1ccccc1)N2` (configuration not stated): the GI50 is 36 µM in the test with SN12C renal; 38.9 µM with NCI/ADR-RES ovarian; 51.7 µM in the test on SF-539 CNS; 36.6 µM in the test on HCT-116 colon; 38.2 µM in the test on UACC-257 melanoma; 29.3 µM in the test with T-47D breast. For the same compound, the GI50 with KM12 colon was 27.6 µM; with IGROV1 ovarian, 34.6 µM; with HT29 colon, 33.3 µM; with OVCAR-8 ovarian it was 46.9 µM. Besides, the TGI in the test on SN12C renal, in the test with NCI/ADR-RES ovarian, with SF-539 CNS, with HCT-116 colon, in the test with UACC-257 melanoma and in the test on T-47D breast was > 100 µM each time. For the same compound, the TGI with KM12 colon, with IGROV1 ovarian, in the test with HT29 colon and in the test with OVCAR-8 ovarian was > 100 µM in each case.

For the compound `c1ccc(CNCCN(CCNCc2ccccn2)Cc2ccc3ccccc3c2)nc1`, the GI50 in the test on SN12C renal was 3.21 µM; with NCI/ADR-RES ovarian, 2.4 µM; in the test with SF-539 CNS, 1.64 µM; in the test on HCT-116 colon, 2.37 µM; in the test with UACC-257 melanoma it was 2.16 µM; with T-47D breast, 2.59 µM. Besides, the GI50 was 2.14 µM with KM12 colon, 2.3 µM in the test on IGROV1 ovarian, 3.04 µM in the test with HT29 colon and 2.27 µM with OVCAR-8 ovarian. In addition, the TGI was found to be 11.1 µM in the test with SN12C renal; 6.96 µM with NCI/ADR-RES ovarian; 3.1 µM in the test on SF-539 CNS; 8.36 µM in the test on HCT-116 colon; 4.69 µM with UACC-257 melanoma; 9.06 µM in the test with T-47D breast. Also, the TGI in the test on KM12 colon was 4.85 µM; with IGROV1 ovarian it was 7.5 µM; in the test with HT29 colon, 7.93 µM; in the test on OVCAR-8 ovarian it was 6.29 µM.

Take `COC(=O)c1oc2c(C(=O)/C=C/c3ccc(OC)cc3)c(OCCN(C)C)ccc2c1C`: the GI50 was 5.31 µM in the test with SN12C renal; 10.3 µM in the test on NCI/ADR-RES ovarian; 11.3 µM with SF-539 CNS; 4.64 µM with HCT-116 colon; 14.1 µM with UACC-257 melanoma; 3.1 µM in the test with T-47D breast. The GI50 with KM12 colon was 9.43 µM; in the test on IGROV1 ovarian, 5.99 µM; in the test on HT29 colon, 3.72 µM; with OVCAR-8 ovarian, 4.96 µM. Besides, the TGI in the test with SN12C renal amounted to 20.4 µM; in the test with NCI/ADR-RES ovarian it was 28 µM; in the test on SF-539 CNS, 24.1 µM; in the test on HCT-116 colon, 19.7 µM; with UACC-257 melanoma, 29.2 µM; in the test on T-47D breast, 16.8 µM. Besides, the TGI in the test with KM12 colon worked out at 24.5 µM; in the test on IGROV1 ovarian it was 21.4 µM; with HT29 colon it was 9.83 µM; in the test on OVCAR-8 ovarian, 21.5 µM.

For the compound `Cc1cc(Nc2nc(N[C@@H](C)c3ncc(F)cn3)ncc2Cl)n[nH]1`, the GI50 was 20.4 µM in the test on SN12C renal; 32 µM with NCI/ADR-RES ovarian; 14.9 µM in the test on SF-539 CNS; 13.3 µM in the test on HCT-116 colon; 33.2 µM in the test on UACC-257 melanoma; 22.8 µM in the test with T-47D breast. Moreover, the GI50 is 0.369 µM with KM12 colon, 26.1 µM with IGROV1 ovarian, 27.8 µM in the test with HT29 colon and 30.5 µM in the test with OVCAR-8 ovarian. For the same compound, the TGI in the test with SN12C renal was > 100 µM; in the test with NCI/ADR-RES ovarian it was > 100 µM; in the test on SF-539 CNS it was 58 µM; in the test on HCT-116 colon it was > 100 µM; in the test on UACC-257 melanoma, > 100 µM; in the test on T-47D breast, > 100 µM. Further, the TGI in the test on KM12 colon was > 64.1 µM; in the test with IGROV1 ovarian, > 100 µM; in the test with HT29 colon, > 100 µM; in the test with OVCAR-8 ovarian it was > 100 µM.

Regarding `CC(=O)NNc1nc(C)c(C(/C=C/c2ccccc2O)=N/N=C(N)N)s1`, the TGI with SN12C renal, in the test with NCI/ADR-RES ovarian, in the test on SF-539 CNS, in the test on HCT-116 colon, with UACC-257 melanoma and in the test with T-47D breast was > 100 µM in each case. Besides, the TGI in the test with KM12 colon, with IGROV1 ovarian, in the test on HT29 colon and with OVCAR-8 ovarian was > 100 µM in each case.

In the case of `NS(=O)(=O)c1cc(C(=O)O)c(O)c2ccccc12`, the TGI in the test with SN12C renal, in the test with NCI/ADR-RES ovarian, with SF-539 CNS, in the test with HCT-116 colon, with UACC-257 melanoma and in the test on T-47D breast was > 100 µM throughout. Further, the TGI in the test with KM12 colon, in the test with IGROV1 ovarian, with HT29 colon and in the test on OVCAR-8 ovarian was > 100 µM throughout.

Turning to `Cn1cc(-c2cnn3c(N)c(Br)c(C4CCCNC4)nc23)cn1` (configuration not stated), the GI50 is 3.86 µM in the test on SN12C renal; 8.36 µM in the test with NCI/ADR-RES ovarian; 0.285 µM in the test with SF-539 CNS; 6.04 µM with HCT-116 colon; 17.8 µM in the test with UACC-257 melanoma; 19.6 µM in the test on T-47D breast. Moreover, the GI50 in the test with KM12 colon is 3.69 µM; with IGROV1 ovarian it was 6.72 µM; in the test with HT29 colon, 4.19 µM; with OVCAR-8 ovarian it was 5.87 µM. Besides, the TGI in the test with SN12C renal was 50.6 µM; in the test with NCI/ADR-RES ovarian, > 100 µM; in the test on SF-539 CNS, 3.88 µM; in the test on HCT-116 colon, 24.6 µM; with UACC-257 melanoma it was 60.6 µM; in the test with T-47D breast, > 100 µM. The TGI in the test with KM12 colon is 44.7 µM; in the test on IGROV1 ovarian it was > 100 µM; with HT29 colon, > 73 µM; with OVCAR-8 ovarian, > 100 µM.

On to `COc1ccc([C@@]23Oc4cc(OC)cc(OC)c4[C@]2(O)[C@H](O)[C@H](C(N)=O)[C@H]3c2ccccc2)cc1`, for which the GI50 with SN12C renal was < 0.0113 µM; with NCI/ADR-RES ovarian, 0.0504 µM; in the test with OVCAR-8 ovarian, < 0.0122 µM. In addition, the TGI in the test with SN12C renal is 0.0751 µM; in the test with NCI/ADR-RES ovarian it was 0.687 µM and 0.867 µM; in the test on SF-539 CNS, 0.0193 µM; in the test with HCT-116 colon, 0.488 µM; with UACC-257 melanoma, 0.206 µM and < 0.0304 µM; in the test on T-47D breast it was 0.21 µM and 0.0483 µM. Further, the TGI with KM12 colon is 0.0999 µM; in the test on IGROV1 ovarian, 0.0641 µM and < 0.0206 µM; in the test on HT29 colon, 0.0659 µM and 0.0515 µM.

Consider `Oc1c(Cl)cc(Cl)c2ccc(Cn3cc(-c4ccc(C(F)(F)F)cc4)nn3)nc12`, for which the GI50 was 2.91 µM in the test on SN12C renal; 19 µM in the test on NCI/ADR-RES ovarian; 1.52 µM in the test with SF-539 CNS; 0.692 µM in the test with HCT-116 colon; 1.23 µM with UACC-257 melanoma; 1.88 µM in the test on T-47D breast. The GI50 was 12.1 µM in the test on KM12 colon, 1.41 µM in the test on IGROV1 ovarian, 2.46 µM with HT29 colon and 2.75 µM in the test on OVCAR-8 ovarian. The TGI with SN12C renal was determined as 11.6 µM; in the test on NCI/ADR-RES ovarian it was 64.2 µM; with SF-539 CNS, 2.94 µM; in the test with HCT-116 colon, 2.57 µM; with UACC-257 melanoma, 3.3 µM; with T-47D breast, 5.59 µM. Also, the TGI with KM12 colon stood at 26.6 µM; in the test with IGROV1 ovarian it was 3.19 µM; in the test with HT29 colon, 6.75 µM; with OVCAR-8 ovarian, 11.5 µM.

`O=C1c2ccccc2-c2c1c1ccccc1c(=O)n2CCCNCCn1c2c(c3ccccc3c1=O)C(=O)c1ccccc1-2`: the GI50 was 10.9 µM in the test on SN12C renal; 11.3 µM in the test with NCI/ADR-RES ovarian; 14.6 µM with SF-539 CNS; 1.05 µM in the test with HCT-116 colon; 17.9 µM in the test with UACC-257 melanoma; 17.8 µM in the test with T-47D breast. Also, the GI50 was 2.32 µM in the test with KM12 colon, 2.63 µM in the test with IGROV1 ovarian, 2.42 µM in the test on HT29 colon and 2.73 µM with OVCAR-8 ovarian. Moreover, the TGI in the test with SN12C renal was determined as 22.9 µM; in the test on NCI/ADR-RES ovarian, 25.9 µM; in the test with SF-539 CNS it was 27.8 µM; with HCT-116 colon it was 3.13 µM; with UACC-257 melanoma it was 35 µM; with T-47D breast, 34.6 µM. In addition, the TGI with KM12 colon was > 100 µM; in the test on IGROV1 ovarian it was 32.2 µM; in the test on HT29 colon, 10 µM; with OVCAR-8 ovarian it was 16.6 µM.

As to `O=C(CCN1CCCCC1)N1CCc2c([nH]c3ccccc23)C1c1cccnc1` (configuration not stated), the TGI was > 100 µM in the test on SN12C renal; > 100 µM in the test on NCI/ADR-RES ovarian; > 85.7 µM in the test on SF-539 CNS; > 100 µM in the test on HCT-116 colon; 34.7 µM with UACC-257 melanoma; > 100 µM in the test on T-47D breast. For the same compound, the TGI is > 100 µM with KM12 colon, > 100 µM in the test with IGROV1 ovarian, 75.4 µM in the test on HT29 colon and > 100 µM in the test on OVCAR-8 ovarian.

Consider `Cc1cc(Nc2cc(N3CCN(C)CC3)nc(/C=C/c3ccccc3)n2)n[nH]1`, for which the GI50 in the test on SN12C renal is 0.62 µM; in the test with NCI/ADR-RES ovarian, 2.03 µM; with SF-539 CNS, 0.718 µM; in the test with HCT-116 colon, 0.201 µM; in the test on UACC-257 melanoma, 1.98 µM; in the test with T-47D breast it was 1.77 µM. Besides, the GI50 was 0.0426 µM with KM12 colon, 0.0542 µM in the test on IGROV1 ovarian, 0.542 µM with HT29 colon and 1.68 µM with OVCAR-8 ovarian. Also, the TGI was > 10 µM in the test on SN12C renal; > 10 µM in the test with NCI/ADR-RES ovarian; 2.05 µM with SF-539 CNS; > 10 µM in the test with HCT-116 colon; > 5.32 µM with UACC-257 melanoma; > 9.46 µM with T-47D breast. For the same compound, the TGI in the test on KM12 colon is > 3.84 µM; in the test with IGROV1 ovarian, 1.62 µM; in the test with HT29 colon, > 6.77 µM; in the test on OVCAR-8 ovarian, > 10 µM.
